As a reminder, the AUC(0-t) is exposure summed from dosing to a finite time, without extrapolation to infinity. What is called bioavailability is dose-corrected exposure relative to a reference, in per cent. As usually defined, the Cmax is the maximum level reached in the sampled fluid or tissue. The Tmax is the time from dosing to the highest level.

Where two headings read alike, the source gives them in different places.

We go through one molecule from US20230114753A1, “USE OF A GROUP OF MARKERS FOR DIAGNOSING AND ADJUSTING TREATMENT OF PRIMARY BILIARY CHOLANGITIS, PHARMACEUTICAL COMPOSITION AND SOLID DOSAGE FORM FOR TREATING PRIMARY BILIARY CHOLANGITIS” (MILI HEALTHCARE TRADE DMCC, LIMITED LIABILITY COMPANY, priority 2020, published 2023).

The series in a line: Pharmacokinetics of obeticholic acid taken orally, in a monocomposition or with UDCA. Type of series: in vivo. Here is the method: A study of the pharmacokinetics of obeticholic acid in a monocom position and as part of a composition with ursodeoxycholic acid when taken orally was conducted.

As to `CC[C@H]1[C@@H](O)[C@@H]2[C@H](CC[C@]3(C)[C@@H]([C@H](C)CCC(=O)O)CC[C@@H]23)[C@@]2(C)CC[C@@H](O)C[C@@H]12` [OCA, obeticholic acid], the AUC(0-t) (in vivo, po) is 34.8 ng·h/mL. For the same molecule, the bioavailability (in vivo, po, read-out: Bioavailability) is 89%. For the same molecule, the Cmax (in vivo, po, read-out: Cmax) was 16.7 ng/mL. For the same molecule, the Tmax (listed as OCA 5 mg) was found to be 0.667 h. In addition, where the note is “listed as OCA 10 mg”, the AUCt came out at 66.1 ng·h/mL, the peak concentration (Cmax) stood at 26.4 ng/mL, the Tmax worked out at 1.5 h and the bioavailability was 91%.
